Laboratory results as given in US20100273732A1, “COMBINATION METHODS OF TREATING CANCER” (priority 2003, published 2010).
Where two headings read alike, the source gives them in different places.

How the values were obtained:
LnCap (prostate) cells = assay: alamarBlue proliferation inhibition, drug combination experiments, LnCap; format: cell-based; details: Homo sapiens, 96 h
Procedure: (§1) Drug combination experiments were performed on five human cancer cell lines: T24 (bladder carcinoma), LnCap (prostate), MCF7 (breast), DLCL (non-Hodgkin's lymphoma) and LCC18 (colon carcinoid). Each cell line was cultured and incubated at 37° C. in its required medium: MEM a (10% FCS), RPMI 1640 (10% FCS), DME HG (10% FCS), enhanced RPMI (10% FCS), and Hites medium (5% FCS), respectively.
(§2) DLCL, a suspension cell line, was plated on 96 well plates on the same day of the experiment. For T24, LnCap, DLCL and LCC18, 200 μL containing 2000 cells were plated into each well. For MCF7, 4000 cells/well were plated to account for the line's slower cell cycle.
(§3) Cells that received no treatment served as a control group.
(§4) To administer treatment to adherent cell lines (T24, LnCap, MCF7), media in each well was aspirated and replaced with 200 μL of media containing desired concentration of drug or drugs. For all other cell lines ([…] and DLCL), 22 μL of media containing 10 times the desired concentration of drug or drugs was added to 200 μL of media in each well.
(§5) After treatment, cells were incubated at 37° C. for 4 days. On the fourth day, each well was treated with 20 μL of alamarBlur™, an aqueous dye, and incubated for 4 hours at 37° C. The reduction of this dye, when absorbed by cells, is greater in proliferating cells than in non-proliferating cells because of an increased concentration of NADPH, FADH, FMNH and NADH. The reduction was measured by fluorescence using a SpectaMax GeminiXS® spectrofluorometric microtiter well plate reader (Molecular Devices Corporation, Sunnyvale, Calif.). Data was expressed as fluorescence emission intensity units as a function of time of incubation and analyzed using SOFTmax PRO® v. 4.0 software (Molecular Devices Corp. Sunnyvale, Calif.). In order to assess the percent inhibition of cell growth four days after drug treatment, the following formula was used:
(§6) 100−(Mean Intensity Units/Well with Identical Treatment)*100(Mean Intensity Units/Well in Control Group)
(§7) The concentrations used for treatment with each drug are based on the dose that inhibits 50% of proliferation for each drug. The following concentrations were tested:
(§8) a) 50% effective dose/4; b) 50% effective dose/2; c) 50% effective dose; d) 50% effective dose*2; and e) 50% effective dose*4. […] A polynomial relationship was defined between drug concentration and percent inhibition using various concentrations, and this function was used to predict the concentration of each drug required to inhibit proliferation of 50% of the cells.
(§9) The following criteria were established for assessing additive, synergistic and antagonistic interactions: […]

[1] = system: T24 (bladder carcinoma) cells; assay: alamarBlue proliferation inhibition, drug combination experiments, T24; format: cell-based; details: Homo sapiens, 96 h, read-out: 50% inhibition Effective Dose, T24, 4 days
Procedure: as §1, §2, §3, §4, §5, §6, §7, §8, §9

T24 cell line = assay: Cell proliferation and viability count, SAHA and 5-azacytidine, T24; format: cell-based, human; details: 200 nM 5-azacytidine (27.5 h pre-incubation), 5 μM SAHA or both
Procedure: Cells were cultured in T-150 flasks at 37° C. in RPMI with 10% FCS. Cells were diluted in a complete medium to a density of 5.0×10^4 cells/ml. The cells were incubated at 37° C. for 14 hours before treatment with 5-azacytidine to allow cells to adhere to the wells.
Concentrations of 5-azacytidine were prepared by serial dilution of from a 1 mM stock. After 14-hour incubation in complete medium, wells were aspirated and the medium was replaced to 1 ml of 5-azacytidine at the indicated concentration.
(§10) To assay for proliferation and viability, triplicate samples of cells were harvested and counted for proliferation and viability at the indicated time points as described above in Example 2.

LnCap cell line = assay: Cell proliferation and viability count, SAHA and gemcitabine, LnCap; format: cell-based, human; details: 2 nM gemcitabine, 5 μM SAHA or both, 72 hours
Procedure: Cells were plated at a density of 2.5×10^4 cells/ml in RMPI medium with 10% FCS, and were allowed to adhere to wells.
Gemcitabine was reconstituted in medium and the pH was adjusted to 7 using 1N NaOH. Concentrations of gemcitabine were prepared by serial dilution of gemcitabine in complete medium.
The cells were then cultured with medium containing the compound or combination of compounds.
as §10

[2] = system: carcinogen-induced (N-methylnitrosourea) mammary tumors; details: rats; SAHA in diet over 130 days; cited from earlier work
[3] = read-out: 50% inhibition Effective Dose, LnCap, agent alone, 4 days
[4] = read-out: 50% inhibition Effective Dose, LnCap, in combination with SAHA 0.125 μM, 4 days
[5] = read-out: 50% inhibition Effective Dose, LnCap, in combination with SAHA 0.5 μM, 4 days
[6] = read-out: 50% inhibition Effective Dose, LnCap, in combination with SAHA 1.0 μM, 4 days
[7] = read-out: 50% inhibition Effective Dose, LnCap, in combination with SAHA 2.0 μM, 4 days
[8] = in combination with SAHA 0.625 μM
[9] = in combination with SAHA 1.25 μM
[10] = in combination with SAHA 5.0 μM
[11] = in combination with SAHA 10.0 μM
[12] = read-out: 50% inhibition Effective Dose, LnCap, in combination with SAHA 0.25 μM, 4 days
[13] = in combination with SAHA 2.5 μM

Row | Compound | IC50 (LnCap (prostate) cells; [3]) [nM] | IC50 (LnCap (prostate) cells; [4]) [nM] | IC50 (LnCap (prostate) cells; [5]) [nM] | IC50 (LnCap (prostate) cells; [6]) [nM] | IC50 (LnCap (prostate) cells; [7]) [nM] | IC50 ([1]; agent alone) [nM] | IC50 [1, 8] [nM] | IC50 [1, 9] [nM] | IC50 [1, 10] [nM] | IC50 [1, 11] [nM] | Effect on cell proliferation (FIG. 3) (T24 cell line) | IC50 (LnCap (prostate) cells; [12]) [nM] | IC50 [1, 13] [nM] | Effect on cell proliferation (FIG. 2) (LnCap cell line) | Development and continued growth of mammary tumors [2]
1 | O=c1[nH]cc(F)c(=O)[nH]1 [5-FU, 5-Fluorouracil] | 3000 | 5200 | 1600 | 1900 | 990 | 14000 | 13100 | 11500 | 2700 | 1500 |  |  |  |  | 
2 | Nc1ncn([C@@H]2O[C@H](CO)[C@@H](O)[C@H]2O)c(=O)n1 [5-azacytidine] |  |  |  |  |  |  |  |  |  |  | significantly inhibited proliferation |  |  |  | 
3 | CC(=O)O[C@@]12CO[C@@H]1C[C@H](O)[C@@]1(C)C(=O)[C@H](O)C3=C(C)[C@@H](OC(=O)[C@H](O)[C@@H](NC(=O)OC(C)(C)C)c4ccccc4)C[C@@](O)([C@@H](OC(=O)c4ccccc4)[C@H]21)C3(C)C [Docetaxel] | 2.1 | 1.2 | 0.6 | 0.34 | 0.12 | 2.1 | 0.51 | 0.72 | 0.29 | 0.05 |  | 1.2 | 0.59 |  | 
4 | CCc1c2c(nc3ccc(OC(=O)N4CCC(N5CCCCC5)CC4)cc13)-c1cc3c(c(=O)n1C2)COC(=O)[C@]3(O)CC [Irinotecan] | 5.1 | 5.1 | 3.8 | 1.9 | 1.9 | 5.1 | 4.1 | 2.8 | 1.4 | 0.28 |  | 4.1 | 1.9 |  | 
5 | O=C(CCCCCCC(=O)Nc1ccccc1)NO [SAHA, suberoylanilide hydroxamic acid] |  |  |  |  |  |  |  |  |  |  | significantly inhibited proliferation |  |  | significantly inhibited proliferation | effective at inhibiting the development and continued growth
6 | Nc1ccn([C@@H]2O[C@H](CO)[C@@H](O)C2(F)F)c(=O)n1 [gemcitabine] |  |  |  |  |  |  |  |  |  |  |  |  |  | small effect | 
